What was measured:
[1] = target: Human CB1 Receptor-1 (hCB1) (Homo sapiens (Human), UniProt P21554); experiment: hCB1 Gai cyclic AMP (cAMP) TR-FRET assay, antagonism of EC80 CP55940 with forskolin; type: cell-based; conditions: hCB1 cells, 30 min pre-incubation
Protocol: (§1) Example 3. Biochemical Methods Human CB1 Receptor-1 (hCB1) and Human CB1 Receptor-1b (hCBib)
(§2) hCB1/hCB1 b Gai Cyclic AMP (cAMP) Assays: Cells were seeded in a 384-well plate at an appropriate density from frozen cells. The cAMP assays were performed according to the manufacturer's protocol using MULTISCREEN™ TR-FRET cAMP 1.0 No Wash Assay Kit. Cells (hCB1 or hCB1 b) were pre-incubated with customer compounds for 30 minutes at rt followed by addition of EC80 CP55940 concentration and Forskolin. Cells were then incubated for 20 minutes at 37C. The reaction was terminated by sequentially adding sequentially adding MULTISCREEN™ Eu-labeled cAMP and MULTISCREEN™ 650-labeled anti-cAMP antibody in lysis buffer. The plate was then incubated at rt for 30 minutes before reading fluorescent emissions at 620 nm and 665 with excitation at 314 nm on FlexStation III (Molecular Devices). The results are shown in Table 2 (“***” denotes an IC50<100 nM; “**” denotes an IC50 between 100 nM and 500 nM, and “*” denotes an IC50>500 nM).

[2] = target: Human CB1 Receptor-1b (hCB1b) (Homo sapiens (Human), UniProt P21554); experiment: hCB1b Gai cyclic AMP (cAMP) TR-FRET assay, antagonism of EC80 CP55940 with forskolin; type: cell-based; conditions: hCB1b cells, 30 min pre-incubation, read-out: CB1b IC50
Sequence of Human CB1 Receptor-1b (hCB1b) (P21554 other isoform, or with tags, fused parts or gaps): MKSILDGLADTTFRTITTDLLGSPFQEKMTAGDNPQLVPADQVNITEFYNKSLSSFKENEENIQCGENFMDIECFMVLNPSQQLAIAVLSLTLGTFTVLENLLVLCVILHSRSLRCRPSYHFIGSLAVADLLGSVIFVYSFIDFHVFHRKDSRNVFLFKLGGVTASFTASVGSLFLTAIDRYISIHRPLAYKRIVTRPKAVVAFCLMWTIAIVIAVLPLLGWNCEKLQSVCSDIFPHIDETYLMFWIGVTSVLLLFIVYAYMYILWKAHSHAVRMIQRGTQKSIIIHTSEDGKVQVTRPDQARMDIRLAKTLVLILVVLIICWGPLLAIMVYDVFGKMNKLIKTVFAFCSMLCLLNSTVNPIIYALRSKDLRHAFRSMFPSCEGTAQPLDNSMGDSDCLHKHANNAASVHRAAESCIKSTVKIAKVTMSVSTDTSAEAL
Protocol: as §1, §2

Sequence of Human CB1 Receptor-1 (hCB1) (P21554 whole entry): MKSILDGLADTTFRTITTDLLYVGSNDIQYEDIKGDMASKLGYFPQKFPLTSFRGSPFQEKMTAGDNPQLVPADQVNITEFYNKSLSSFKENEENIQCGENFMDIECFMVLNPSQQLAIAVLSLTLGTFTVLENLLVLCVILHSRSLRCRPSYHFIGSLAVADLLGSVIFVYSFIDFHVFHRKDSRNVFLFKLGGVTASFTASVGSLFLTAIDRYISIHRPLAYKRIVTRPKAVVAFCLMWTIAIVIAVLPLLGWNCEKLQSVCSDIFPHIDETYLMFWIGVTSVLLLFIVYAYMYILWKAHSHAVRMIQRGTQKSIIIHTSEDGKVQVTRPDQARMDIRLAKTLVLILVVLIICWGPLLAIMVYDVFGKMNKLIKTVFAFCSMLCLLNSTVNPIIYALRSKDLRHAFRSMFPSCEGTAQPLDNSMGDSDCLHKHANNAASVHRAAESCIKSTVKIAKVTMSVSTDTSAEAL

Row | IC50 [1] [nM] | IC50 [2] [nM] | Compound
1 | 100 to 500 | 100 to 500 | CC(C)(CN/C(=N\S(=O)(=O)c1ccc(Cl)cc1)N1C[C@H](c2ccccc2)C(c2ccc(Cl)cc2)=N1)CS(N)(=O)=O [Compound 87, (S,E)-3-(4-chlorophenyl)-N′-((4-chlorophenyl)sulfonyl)-N-(2,2-dimethyl-3-sulfamoylpropyl)-4-phenyl-4,5-dihydro-1H-pyrazole-1-carboximidamide]
2 | < 100 | < 100 | NS(=O)(=O)[C@H]1C[C@H](N/C(=N/S(=O)(=O)c2ccc(Cl)cc2)N2C[C@H](c3ccccc3)C(c3ccc(Cl)cc3)=N2)C1 (single isomer, unassigned) [Compound 115]
3 | < 100 | < 100 | NS(=O)(=O)CCNC(=NS(=O)(=O)c1cccc(Cl)c1)N1C[C@H](c2ccccc2)C(c2ccc(Cl)cc2)=N1 [Compound 31, (S)-3-(4-chlorophenyl)-N′-((3-chlorophenyl)sulfonyl)-4-phenyl-N-(2-sulfamoylethyl)-4,5-dihydro-1H-pyrazole-1-carboximidamide]
4 | 100 to 500 | < 100 | NS(=O)(=O)NC1(CN/C(=N\S(=O)(=O)c2ccc(C(F)(F)F)cc2)N2C[C@H](c3ccccc3)C(c3ccc(Cl)cc3)=N2)CC1 [Compound 235, (S,E)-3-(4-chlorophenyl)-4-phenyl-N-((1-(sulfamoylamino)cyclopropyl)methyl)-N′-((4-(trifluoromethyl)phenyl)sulfonyl)-4,5-dihydro-1H-pyrazole-1-carboximidamide]
5 | < 100 | > 500 | C[C@H](CN/C(=N\S(=O)(=O)c1ccc(C(F)(F)F)cc1)N1C[C@H](c2ccccc2)C(c2ccc(Cl)cc2)=N1)S(N)(=O)=O [Compound 17, (S,E)-3-(4-chlorophenyl)-4-phenyl-N-((R)-2-sulfamoylpropyl)-N′-((4-(trifluoromethyl)phenyl)sulfonyl)-4,5-dihydro-1H-pyrazole-1-carboximidamide]
6 | < 100 | < 100 | C[C@H](CN/C(=N\S(=O)(=O)c1ccc(C(F)(F)F)cc1)N1C[C@H](c2ccccc2)C(c2ccc(F)cc2)=N1)S(N)(=O)=O (single isomer, unassigned) [Compound 47]
7 | < 100 | < 100 | CNS(=O)(=O)CCN/C(=N\S(=O)(=O)c1ccc(Cl)cc1)N1C[C@H](c2ccccc2)C(c2ccc(Cl)cc2)=N1 [Compound 169, (S,E)-3-(4-chlorophenyl)-N′-((4-chlorophenyl)sulfonyl)-N-(2-(N-methylsulfamoyl)ethyl)-4-phenyl-4,5-dihydro-1H-pyrazole-1-carboximidamide]
8 | > 500 | > 500 | NS(=O)(=O)[C@@H]1CCN(/C(=N/S(=O)(=O)c2ccc(Cl)cc2)N2C[C@H](c3ccccc3)C(c3ccc(Cl)cc3)=N2)C1 (single isomer, unassigned) [Compound 136]
9 | 100 to 500 | 100 to 500 | NS(=O)(=O)[C@H]1C[C@H](N/C(=N/S(=O)(=O)c2ccc(Cl)cc2)N2C[C@H](c3ccccc3)C(c3ccc(F)cc3)=N2)C1 (single isomer, unassigned) [Compound 127]
10 | 100 to 500 | 100 to 500 | NS(=O)(=O)[C@H]1CC[C@H](N/C(=N/S(=O)(=O)c2ccc(Cl)cc2)N2C[C@H](c3ccccc3)C(c3ccc(F)cc3)=N2)CC1 (single isomer, unassigned) [Compound 125]
11 | < 100 | < 100 | NS(=O)(=O)CCN/C(=N\S(=O)(=O)c1ccc(Cl)cc1)N1C[C@H](c2ccccc2)C(c2ccc(F)cc2)=N1 [Compound 45, (S,E)-N′-((4-chlorophenyl)sulfonyl)-3-(4-fluorophenyl)-4-phenyl-N-(2-sulfamoylethyl)-4,5-dihydro-1H-pyrazole-1-carboximidamide]
12 | 100 to 500 | 100 to 500 | CN(CCNC(=NS(=O)(=O)c1ccc(Cl)cc1)N1C[C@H](c2ccccc2)C(c2ccc(Cl)cc2)=N1)S(N)(=O)=O [Compound 187, (S,E)-3-(4-chlorophenyl)-N′-((4-chlorophenyl)sulfonyl)-N-(2-(methyl(sulfamoyl)amino)ethyl)-4-phenyl-4,5-dihydro-1H-pyrazole-1-carboximidamide]
13 | < 100 | < 100 | NS(=O)(=O)CCNC(=NS(=O)(=O)c1ccccc1Cl)N1C[C@H](c2ccccc2)C(c2ccc(Cl)cc2)=N1 [Compound 29, (S)-3-(4-chlorophenyl)-N′-((2-chlorophenyl)sulfonyl)-4-phenyl-N-(2-sulfamoylethyl)-4,5-dihydro-1H-pyrazole-1-carboximidamide]
14 | > 500 | > 500 | NS(=O)(=O)[C@H]1CC[C@@H](N/C(=N/S(=O)(=O)c2ccc(Cl)cc2)N2C[C@H](c3ccccc3)C(c3ccc(Cl)cc3)=N2)CC1 (single isomer, unassigned) [Compound 119]
15 | < 100 | 100 to 500 | C[C@H](CN/C(=N\S(=O)(=O)c1ccc(Cl)cc1)N1C[C@H](c2ccccc2)C(c2ccc(Cl)cc2)=N1)S(N)(=O)=O [Compound 5, (S,E)-3-(4-chlorophenyl)-N′-((4-chlorophenyl)sulfonyl)-4-phenyl-N-((R)-2-sulfamoylpropyl)-4,5-dihydro-1H-pyrazole-1-carboximidamide]
16 | < 100 | < 100 | NS(=O)(=O)[C@@H]1CC[C@H](N/C(=N/S(=O)(=O)c2ccc(Cl)cc2)N2C[C@H](c3ccccc3)C(c3ccc(Cl)cc3)=N2)C1 [Compound 143, (S,Z)-3-(4-chlorophenyl)-N′-((4-chlorophenyl)sulfonyl)-4-phenyl-N-((1S,3R)-3-sulfamoylcyclopentyl)-4,5-dihydro-1H-pyrazole-1-carboximidamide]
17 | > 500 | > 500 | NS(=O)(=O)[C@H]1CC[C@@H](N/C(=N/S(=O)(=O)c2ccc(Cl)cc2)N2C[C@H](c3ccccc3)C(c3ccc(F)cc3)=N2)CC1 (single isomer, unassigned) [Compound 123]
18 | < 100 | 100 to 500 | CN1CCN(S(=O)(=O)CCN/C(=N\S(=O)(=O)c2ccc(Cl)cc2)N2C[C@H](c3ccccc3)C(c3ccc(Cl)cc3)=N2)CC1 [Compound 157, (S,E)-3-(4-chlorophenyl)-N′-((4-chlorophenyl)sulfonyl)-N-(2-((4-methylpiperazin-1-yl)sulfonyl)ethyl)-4-phenyl-4,5-dihydro-1H-pyrazole-1-carboximidamide]
19 | 100 to 500 | 100 to 500 | C[C@H](CS(N)(=O)=O)N/C(=N\S(=O)(=O)c1ccc(C(F)(F)F)cc1)N1C[C@H](c2ccccc2)C(c2ccc(Cl)cc2)=N1 [Compound 23, (S,E)-3-(4-chlorophenyl)-4-phenyl-N-((R)-1-sulfamoylpropan-2-yl)-N′-((4-(trifluoromethyl)phenyl)sulfonyl)-4,5-dihydro-1H-pyrazole-1-carboximidamide]
20 | 100 to 500 | < 100 | C#Cc1ccc(S(=O)(=O)N=C(NCCS(N)(=O)=O)N2C[C@H](c3ccccc3)C(c3ccc(F)cc3)=N2)cc1 [Compound 59, (S)-N′-((4-ethynylphenyl)sulfonyl)-3-(4-fluorophenyl)-4-phenyl-N-(2-sulfamoylethyl)-4,5-dihydro-1H-pyrazole-1-carboximidamide]
21 | < 100 | 100 to 500 | C[C@@H](CS(N)(=O)=O)N/C(=N\S(=O)(=O)c1ccc(C(F)(F)F)cc1)N1C[C@@H](c2ccccc2)C(c2ccc(Cl)cc2)=N1 [Compound 26, (R,E)-3-(4-chlorophenyl)-4-phenyl-N-((S)-1-sulfamoylpropan-2-yl)-N′-((4-(trifluoromethyl)phenyl)sulfonyl)-4,5-dihydro-1H-pyrazole-1-carboximidamide]
22 | < 100 | 100 to 500 | CN1CCN(S(=O)(=O)CCN/C(=N\S(=O)(=O)c2ccc(Cl)cc2)N2C[C@H](c3ccccc3)C(c3ccc(F)cc3)=N2)CC1 [Compound 163, (S,E)-N′-((4-chlorophenyl)sulfonyl)-3-(4-fluorophenyl)-N-(2-((4-methylpiperazin-1-yl)sulfonyl)ethyl)-4-phenyl-4,5-dihydro-1H-pyrazole-1-carboximidamide]
23 | 100 to 500 | 100 to 500 | NS(=O)(=O)[C@@H]1CC[C@H](N/C(=N/S(=O)(=O)c2ccc(Cl)cc2)N2C[C@H](c3ccccc3)C(c3ccc(F)cc3)=N2)C1 [Compound 149, (S,Z)-N′-((4-chlorophenyl)sulfonyl)-3-(4-fluorophenyl)-4-phenyl-N-((1S,3R)-3-sulfamoylcyclopentyl)-4,5-dihydro-1H-pyrazole-1-carboximidamide]
24 | 100 to 500 | 100 to 500 | CN(C)S(=O)(=O)CCNC(=NS(=O)(=O)c1ccc(Cl)cc1)N1C[C@H](c2ccccc2)C(c2ccc(F)cc2)=N1 [Compound 161, (S,E)-N′-((4-chlorophenyl)sulfonyl)-N-(2-(N,N-dimethylsulfamoyl)ethyl)-3-(4-fluorophenyl)-4-phenyl-4,5-dihydro-1H-pyrazole-1-carboximidamide]
25 | < 100 | < 100 | NS(=O)(=O)NCCN/C(=N\S(=O)(=O)c1ccc(Cl)cc1)N1C[C@H](c2ccccc2)C(c2ccc(Cl)cc2)=N1 [Compound 183, (S,E)-3-(4-chlorophenyl)-N′-((4-chlorophenyl)sulfonyl)-4-phenyl-N-(2-(sulfamoylamino)ethyl)-4,5-dihydro-1H-pyrazole-1-carboximidamide]
